According to patent EP0498830B1, “GLUTAMIC AND ASPARTIC ACID DERIVATIVES WITH ANTIGASTRIN ACTIVITY AND A METHOD FOR THEIR PREPARATION” (ROTTA RESEARCH LABORATORIUM S.P.A., priority 1989, dated 1991):
≈ marks a conversion by molar mass, not a printed value. Like-named read-outs stand apart in the source and are kept apart here. One block for each compound: values may come before it.

Columns and labels:
[1] = system: mouse colic adenocarcinoma; assay: Pentagastrin-induced growth of transplanted colic tumour in mice; format: in vivo; conditions: 20 days
Procedure: (§1) Male mice weighing 20-25g were inoculated subcutaneously in the interscapular region with a suspension of 8 x 10⁴ tumour cells of a mouse colic adenocarcinoma.
(§2) 5 groups each of 10 animals were used, that is : one control group of animals, one group of animals treated with 250 mcg/ml of pentagastrin twice a day and two groups of animals treated with the compound A-5 in doses of 15 and 30 mg/Kg i.p. respectively, twice a day, plus pentagastrin in the manner described above.
(§3) After 20 days, the animals were killed and the fundic mucosa and the tumours were removed, weighed and extracted in order to determine their DNA content.

[2] = biological target: T1, central gastrin receptors (Mus musculus, UniProt P56481); assay: Inhibition of binding of tritiated pentagastrin to mouse cerebral cortex membranes; design: Mouse cortex tissue was homogenised cold in 20 volumes of tris buffer (pH 7.7); from tissue; host or cells: mouse cerebral cortex membranes; species or system mice; conditions: for IC50: displacement of pentagastrin tritiate, 40 minutes at 37°C
T1 sequence (P56481 1-453): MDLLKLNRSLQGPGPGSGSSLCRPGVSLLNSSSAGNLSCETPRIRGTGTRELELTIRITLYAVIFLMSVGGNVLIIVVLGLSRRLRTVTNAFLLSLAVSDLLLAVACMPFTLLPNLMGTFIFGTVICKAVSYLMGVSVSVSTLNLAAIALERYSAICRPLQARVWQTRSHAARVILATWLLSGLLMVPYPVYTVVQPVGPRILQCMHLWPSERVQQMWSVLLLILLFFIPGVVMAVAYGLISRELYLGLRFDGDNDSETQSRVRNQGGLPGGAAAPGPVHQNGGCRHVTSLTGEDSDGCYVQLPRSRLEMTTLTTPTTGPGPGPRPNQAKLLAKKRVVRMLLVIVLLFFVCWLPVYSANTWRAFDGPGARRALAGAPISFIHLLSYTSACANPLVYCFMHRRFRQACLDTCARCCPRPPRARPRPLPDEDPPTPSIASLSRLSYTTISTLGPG
Procedure: (§4) Cerebral cortex membranes were therefore used and pentagastrin tritiate was again used as the ligand.
(§5) Mouse cortex tissue was homogenised cold in 20 volumes of tris buffer (pH 7.7). After washing and centrifuging, the final pellet was resuspended in 20 volumes of binding buffer containing, inter alia, TRIS, BSA and bacitracin. 0.4 ml of the membrane thus obtained were then incubated with a radioactive tracer and with the compounds under test for 40 minutes at 37°C.
(§6) After the supernatant liquid had been removed by centrifuging, the radioactivity associated with the pellet was determined, again with a liquid scintillator. The specific binding is the difference between the binding in the absence and in the presence of 10⁻⁶M pentagastrin.
(§7) Again, this gives the IC50s of the compounds tested with the meaning as given above.

[3] = system: fundic mucosa; assay: Pentagastrin-induced hyperplasia of the fundic mucosa in tumour-bearing mice; format: in vivo; conditions: 20 days
Procedure: as §1, §2, §3

[4] = biological target: T2, gastrin receptor sites on the parietal cell membranes of the fundic mucosa of a guinea-pig stomach (Cavia porcellus, UniProt H0VZC5); assay: Inhibition of binding of tritiated pentagastrin to isolated guinea-pig gastric glands; design: from tissue; host or cells: isolated gastric glands from guinea-pig fundic mucosa (collagenase digestion); conditions: for IC50: displacement of 50% of pentagastrin tritiate, 30 minutes at 25°C, read-out: IC50
T2 sequence (H0VZC5 1-426): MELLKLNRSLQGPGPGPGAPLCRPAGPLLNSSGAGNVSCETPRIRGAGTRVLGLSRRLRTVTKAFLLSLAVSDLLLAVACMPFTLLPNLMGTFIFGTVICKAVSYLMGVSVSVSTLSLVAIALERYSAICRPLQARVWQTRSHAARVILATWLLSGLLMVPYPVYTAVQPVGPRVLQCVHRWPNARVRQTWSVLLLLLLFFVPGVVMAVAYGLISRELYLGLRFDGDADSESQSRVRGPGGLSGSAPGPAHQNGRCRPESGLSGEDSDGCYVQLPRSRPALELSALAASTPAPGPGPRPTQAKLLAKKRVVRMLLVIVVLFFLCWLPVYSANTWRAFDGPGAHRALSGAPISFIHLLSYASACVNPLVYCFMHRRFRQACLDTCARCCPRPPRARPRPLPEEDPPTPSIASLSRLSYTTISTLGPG
Procedure: (§8) The capacity of some of the compounds which are the subject of the invention to inhibit the binding of pentagastrin-[beta-alanyl-3-3H(N)] to the gastrin receptor sites on the parietal cell membranes of the fundic mucosa of a guinea-pig stomach was evaluated by comparison with the displacement of pentagastrin induced by proglumide, which is a reference antigastrin compound, by lorglumide, which is a powerful CCK antagonist mentioned above, and by the compound D5 which is the optical antipode (the L-series enantiomer) of the compound D1.
(§9) Male guinea pigs weighing about 400-500g were used. After the guinea pig had been killed, its stomach was removed and placed in oxygenated SPB buffer at 37°C (SPB = saline phosphate buffer: 149.6 mM NaCl, 3 mM K₂HPO₄, 0.64 mM NaH₂PO₄, pH 7.3).
(§10) After washing in the buffer, the stomach was placed on a petri dish and the antral part discarded.
The mucosa of the remaining part was removed from the underlying muscular part and was then chopped and transferred to a flask containing a collagenase digestion solution, 0.1% BSA and 0.2% glucose. The solution was incubated at 37°C for 10 minutes under agitation and a stream of 0₂.
During the incubation period, the tissue was passed several times through a series of pipettes with decreasing diameters in order to facilitate its digestion. At the end of the period, the tissue was removed and centrifuged at 1000 rpm. The supernatant liquid resulting from the centrifuging was discarded and the pellet washed several times with a washing buffer containing EPTA to remove the collagenase.
The glands were then isolated from the undigested tissue by conventional techniques, suspended in Hepes buffer for binding and incubated together with a radioactive tracer and the compounds under test for 30 minutes at 25°C.
After the supernatant liquid had been removed by centrifuging, the radioactivity associated with the pellet was determined with a liquid scintillator. The specific binding was determined as the difference between the binding in the absence and in the presence of 10⁻⁶ M pentagastrin.
The results obtained are shown in Table 1 which gives the IC50, that is, the concentration (in moles/litre) of the antagonist which can displace 50% of the pentagastrin tritiate from the receptor.

[5] = system: gastric acid secretion induced by pentagastrin; assay: Antisecretive activity in anaesthetised rats, stimulant pentagastrin; format: in vivo; conditions: for ED50: Rattus norvegicus, iv, pentagastrin 30 mcg/kg/h, I.V. bolus, anaesthetised rats, read-out: Antagonistic activity (ED50 mg/kg IV) towards gastric acid secretion induced by pentagastrin
Procedure: The antisecretive activity was determined in rats with the use of male animals weighing about 200g, anaesthetised with urethane. Gastric secretion was stimulated with pentagastrin. K.S. Lai's method (Gut 5, (1964), 327-341) was used, with slight modifications.
After tracheotomy, oesophageal and duodenal cannulae were inserted. A tepid solution (37°C) of 0.25 mM NaOH was perfused through the stomach by means of a peristaltic pump at a constant flow rate of 1 ml/minute. After stabilisation for 20 minutes, the dose of the stimulant, indicated in Table 3, dissolved in a physiological solution, was perfused for 120 minutes at a rate of 0.95 ml/hour. After 60 minutes of perfusion (basic stimulation), the products under test were administered intravenously (I.V.) in boli whilst the perfusion of the stimulant continued for a further 60 minutes. The acid secretion was recorded continuously as a function of time.
The activity of the product was evaluated as the reduction in the secreted acidity after administration of the product as a percentage of the basic acidity measured during the first 60 minutes of collection during which only pentagastrin was present.
The antagonistic compounds tested were administered in different doses so that an ID50 (that is the dose (in mg/Kg I.V.) which can inhibit the effect of the pentagastrin by 50% could be calculated.
The results thus obtained are given in the following table in which the activities of the compounds are expressed as ID50s under the stimulus of pentagastrin at 30 mcg/Kg/h.

[6] = system: guinea-pig gall bladders stimulated in vitro by CCK-8; assay: Anti-CCK activity on guinea-pig gall bladder contracted in vitro by CCK-8; conditions: CCK-8 10 ng/ml; at least three tests per compound
Procedure: In order to check the hypothesis that the molecular conformation of the subject compounds is suitable to give them a specific antagonistic activity towards gastrin and not towards CCK, the anticontracturant activity of some of the compounds of the invention was tested on guinea-pig gall bladders stimulated in vitro by CCK-8.
A longitudinal strip of guinea-pig gall bladder was placed in a bath for isolated organs in the presence of Krebs at a temperature of 32°C, continuously oxygenated by an oxygen-CO₂ mixture (95-5 V/V).
The isometric contractions were detected by means of a force transducer and recorded.
The gall bladder was contracted with the use of a 10ng/ml concentration of CCK-8; the antagonistic activity of the compounds towards the contracturant effect of the CCK was determined with the use of different concentrations and the IC50 value, that is, the concentration in mcg/ml of the compound which is able to antagonise the contracturant effect of the CCK by 50%, thus determined.
The results obtained are set out in the table below which gives the compounds tested and the IC50s which were calculated by the regression method on a set of at least three tests for each compound investigated.

[7] = system: mice; assay: Acute toxicity LD50 IV in mice; conditions: LD50 IV mice / ID50 IV rats
[8] = in vivo; conditions: mouse, iv
[9] = system: guinea-pig gall bladders stimulated in vitro by CCK-8; conditions: CCK-8 10ng/ml; from U.S. Patent A-4 791 215; cited from earlier work
[10] = biological target: T2, gastrin receptor sites on the parietal cell membranes of the fundic mucosa of a guinea-pig stomach; assay: Inhibition of binding of tritiated pentagastrin to isolated guinea-pig gastric glands; design: from tissue; host or cells: isolated guinea-pig gastric (fundic) glands; conditions: displacement of 50% of pentagastrin tritiate; 30 minutes at 25°C
Procedure: as §8, §9, §10
The mucosa of the remaining part was removed from the underlying muscular part and was then chopped and transferred to a flask containing a collagenase digestion solution, 0.1% BSA and 0.2% glucose. […]
After the supernatant liquid had been removed by centrifuging, the radioactivity associated with the pellet was determined with a liquid scintillator. The specific binding was determined as the difference between the binding in the absence and in the presence of 10⁻⁶ M pentagastrin. […]

[11] = system: mouse colic adenocarcinoma; assay: Pentagastrin-induced growth of transplanted colic tumour in mice; format: in vivo; conditions: pentagastrin alone, 250 mcg/ml twice a day, 20 days
Text: (§11) Male mice weighing 20-25g were inoculated subcutaneously in the interscapular region with a suspension of 8 x 10⁴ tumour cells of a mouse colic adenocarcinoma. […] After 20 days, the animals were killed and the fundic mucosa and the tumours were removed, weighed and extracted in order to determine their DNA content.

[12] = system: fundic mucosa; assay: Pentagastrin-induced hyperplasia of the fundic mucosa in tumour-bearing mice; format: in vivo; conditions: pentagastrin alone, 250 mcg/ml twice a day, 20 days
Text: as §11

[13] = biological target: T1, central gastrin receptors; assay: Inhibition of binding of tritiated pentagastrin to mouse cerebral cortex membranes; design: Cerebral cortex membranes were therefore used and pentagastrin tritiate was again used as the ligand; from tissue; host or cells: mouse cerebral cortex membranes; species or system mice; conditions: displacement of pentagastrin tritiate; 40 minutes at 37°C
Procedure: as §4, §5, §6, §7

[14] = PEG + A-5 15 mg/Kg i.p. twice a day
[15] = PEG + A-5 30 mg/Kg i.p. twice a day

IC50 [2]: 96 nM
IC50 [4]: 80 nM
SMILES: CC(C)(C)CCNC(=O)C(CCC(=O)O)NC(=O)c1cccc(Cl)c1 (racemic) [A5, ( ± )-4-[(3-chlorobenzoyl)-amino]-5-(3,3-dimethylbutylamino)-5-oxopentanoic acid]
TUMOROUS DNA [1, 14]: 3.26 ± 0.49 mg
WEIGHT OF THE COLIC TUMOUR [1, 14]: 579.0 ± 40 mg
TUMOROUS DNA [1, 15]: 2.87 ± 0.2 mg
WEIGHT OF THE COLIC TUMOUR [1, 15]: 559.5 ± 43 mg
FUNDIC DNA [3, 14]: 0.28 ± 0.02 mg
WEIGHT OF THE FUNDIC MUCOSA [3, 14]: 25.1 ± 4.7 mg
FUNDIC DNA [3, 15]: 0.23 ± 0.05 mg
WEIGHT OF THE FUNDIC MUCOSA [3, 15]: 19.9 ± 2.1 mg
ED50 [5]: 35 mg/kg

SMILES: CCC(C)(C)CCNC(=O)C(CCC(=O)O)NC(=O)c1cccc(C)c1 (racemic) [A20]
IC50 [2]: 830 nM
IC50 ACTIVITY [6]: > 100 µg/mL
IC50 [4]: 680 nM
ED50 [5]: 44 mg/kg

SMILES: CC(C)(C)CCNC(=O)[C@@H](CCC(=O)O)NC(=O)c1cccc(Cl)c1 [D1, D-4-(3-chlorobenzoylamino)-5-(3,3-dimethylbutylamino)-5-oxopentanoic acid]
toxic dose (LD50) relative to the antigastrin dose (ID50) [7]: about 20 times
times more active than the corresponding L-enantiomers (compound D5) ([2]; cortical membranes): about 10 times
IC50 [2]: 61 nM
IC50 ACTIVITY [6]: 83 µg/mL (≈ 225 µM)
IC50 [4]: 53 nM
LD50 [8]: ~600 mg/kg
ED50 [5]: 28 mg/kg

IC50 [2]: 6100 nM
times less powerful than the most active compounds ([2]; ratio of IC50s, cortical membranes): about 100 times
IC50 [4]: 11000 nM
times less active than the most powerful compounds of the series ([4]; ratio of IC50s, gastric glands): about 200 times
SMILES: CCCCCN(CCCCC)C(=O)C(CCC(=O)O)NC(=O)c1ccc(Cl)c(Cl)c1 (stereo not drawn) [Lorglumide, reference compound]
IC50 ACTIVITY [6]: 0.06 µg/mL (≈ 0.131 µM)
concentration inhibiting by 50% the contraction induced by CCK-8 [9]: 0.06 µg/mL
ED50 [5]: > 100 mg/kg
activity against pentagastrin-induced acid secretion ([5]; up to a dose of 100 mg/Kg): completely inactive

SMILES: CSCC[C@H](NC(=O)[C@H](Cc1c[nH]c2ccccc12)NC(=O)CCNC(=O)OC(C)(C)C)C(=O)N[C@@H](CC(=O)O)C(=O)N[C@@H](Cc1ccccc1)C(N)=O [Pentagastrin]
IC50 [10]: 0.41 nM
TUMOROUS DNA [11]: 4.48 ± 0.29 mg
WEIGHT OF THE COLIC TUMOUR [11]: 779.7 ± 27 mg
FUNDIC DNA [12]: 0.44 ± 0.03 mg
WEIGHT OF THE FUNDIC MUCOSA [12]: 36.0 ± 4.2 mg
IC50 [13]: 0.78 nM
